What was measured:
[1] = test system: endotoxin-induced uveitis in female Lewis rats (neutrophil influx into ocular tissue); experiment: endotoxin-induced uveitis model, neutrophil influx (MPO activity) into the eye after topical administration; format: in vivo, rat (female Lewis); conditions: for % Inhibition of Influx: topical 5 μl to each eye, 24 hours post endotoxin; for inhibition of neutrophil influx into the rat eye (in words): endotoxin induced uveitis, following topical administration
Method: The topical ophthalmic activity of representative compounds of the present invention, as compared with dexamethasone, is shown in Table 5 below. The compounds were evaluated in an endotoxin-induced uveitis model. This subacute model of ocular inflammation is characterized by the infiltration of neutrophils into the ocular tissue following administration of an endotoxin.
Ocular inflammation in female Lewis rats was initiated by hindpaw injection of 0.1 milliliters [ml] sterile saline (0.9% NaCl, weight:volume [w:v]) containing […] bacterial endotoxin (LPS; Escherichia coli 055:B5). Test compound or vehicle (carbopol/maxidex), 5 μl, was administered topically to each eye of the experimental animal 20 and 24 hours prior to endotoxin injection, immediately before endotoxin injection, and 4 and 20 hours after endotoxin injection. Twenty-four hours post endotoxin injection, animals were sacrificed by CO2 inhalation, and total ocular polymorphonuclear neutrophil (PMN) content was assessed indirectly by determination of myleoperoxide activity (MPO).
Ocular tissues were prepared for the quantification of neutrophil content as follows: Eyes were homogenized in 2.5 ml of ice-cold 50 mM phosphate/10mM N-ethylmaleimide buffer. The Brinkman homogenation probe was rinsed three (3) times with 2.5 ml of the same buffer and the probe washings were combined with the initial tissue homogenate. The homogenate was centrifuged for 30 minutes at 12,000×gravitational constant [g] at 4° C. The supernatant was discarded and the proteinaceous pellet was solubilized on 0.5 ml of ice-cold 0.5% hexadecyltrimethyl ammonium bromide (HTABr)/50 mM phosphate buffer (pH 6.0). The detergent-treated pellet homogenate was centrifuged at 4° C. for 30 minutes at 12,000×g and the supernatant collected and assayed for MPO activity in a buffer containing 50 mM phosphate/250 mM HTABr/250 μM hydrogen peroxide and 1.5 mM o-dianisidine (pH 6.0). o-Dianisidine oxidation was monitored spectrophotometrically at a wavelength of 460 nanometers [nm].

bovine retinal pieces = experiment: inhibition of lipid peroxide formation (TBARS) in bovine retinal pieces after hypoxia/reoxygenation; format: cell-based; conditions: hypoxia 1 hour, reoxygenated for 1 hour, agent added after 50 minutes of hypoxia
Method: The cytoprotective effects of the compounds were measured using bovine retinal pieces. Retinal tissues were incubated in hypoxic media for 1 hour. After 50 minutes of hypoxia, test agents were added to the media to allow 10 minutes for the drug to diffuse into the tissue prior to reoxygenation. The vehicle by itself, was added to the non-drug group. Following the incubation period, tissue was reoxygenated for 1 hour. Lipid peroxidation was assessed by the formation of thiobarbituric acid reacting substances (TBARS). The tissues were homogenized and added to the trichloroacetic acid-thiobarbituric acid reagent and heated in the presence of BHT. The homogenate was filtered and the absorbance of the supernant was measured spectrophotometrically. A double derivative technique was used to calculate the concentration of TBARS present in each sample. Quantitation was based on a molar extinction coefficient of 1.56×10^5.

5-lipoxygenase = target: T1, 5-lipoxygenase (Oryctolagus cuniculus, UniProt G1SNX0); experiment: 5-lipoxygenase inhibition (5-HETE and LTB4 formation) in A23187-stimulated rabbit neutrophils; format: cell-based, rabbit (New Zealand Albino); conditions: A23187 5.0 μM, arachidonic acid 52 μM, 3 minutes at 37° C.
T1 construct: neutrophils isolated from rabbit peripheral blood; endogenous in cells; host or cells: neutrophils from peripheral blood of New Zealand Albino rabbits
T1 sequence (G1SNX0 1-674): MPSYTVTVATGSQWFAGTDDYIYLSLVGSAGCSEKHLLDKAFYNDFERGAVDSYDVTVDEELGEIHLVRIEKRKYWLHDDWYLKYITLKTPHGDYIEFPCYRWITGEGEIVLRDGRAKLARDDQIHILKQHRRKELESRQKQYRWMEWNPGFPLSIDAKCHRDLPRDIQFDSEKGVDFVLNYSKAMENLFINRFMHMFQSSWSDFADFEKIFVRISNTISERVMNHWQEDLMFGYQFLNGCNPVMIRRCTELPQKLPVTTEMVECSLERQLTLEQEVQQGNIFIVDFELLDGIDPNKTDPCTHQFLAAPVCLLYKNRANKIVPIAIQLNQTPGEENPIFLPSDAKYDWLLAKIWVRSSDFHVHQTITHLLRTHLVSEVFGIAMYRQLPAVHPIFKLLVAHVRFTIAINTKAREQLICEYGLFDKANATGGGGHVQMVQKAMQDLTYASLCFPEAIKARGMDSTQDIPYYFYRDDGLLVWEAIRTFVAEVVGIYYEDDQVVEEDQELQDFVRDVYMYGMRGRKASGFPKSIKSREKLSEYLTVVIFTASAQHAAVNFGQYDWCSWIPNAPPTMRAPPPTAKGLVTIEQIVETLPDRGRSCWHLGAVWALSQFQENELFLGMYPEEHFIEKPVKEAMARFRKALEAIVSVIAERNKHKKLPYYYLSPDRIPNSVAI
Method: The 5-lipoxygenase inhibitor activity was determined by measuring the inhibition of 5-HETE and LTB4 formation. The ability of a compound to suppress 5-HETE and LTB4 formation was investigated in calcium ionophore (A23187)-stimulated neutrophils isolated from rabbit peripheral blood. Neutrophils were isolated by standard procedures. Briefly, heparinized/calcium chelated blood was obtained from New Zealand Albino (NZA) rabbits by heart puncture. Red cells were removed at 4° C. by dextran sedimentation,as described in Blood, volume 11, 436 (1956). White cells, contained in the supernatant fraction, were sedimented by centrifugation and contaminating red cells removed by hypotonic lysis. The white cell pellet obtained, following red cell lysis and centrifugation, was resuspended in Dulbecco's PBS (Ca^2+ /Mg^2+ -free) and layered onto a 60% Histopaque-1083®/40% Histopaque-1119® cushion (Sigma Chemical, St. Louis, Mo., U.S.A.). The Histopaque® cushion was then centrifuged, and the resulting neutrophil pellet was washed and resuspended in 1/25 of the original blood volume. Aliquots of the cell suspension were pretreated for 5 minutes at 37° C. with carrier (DMSO) or test article dissolved in DMSO. CaCl2 was immediately added to the cell suspension and cells stimulated by addition of 5 microliters [μl] of a mixture containing [1-^14 C]-arachidonic acid and A23187 in DMSO. […]

[2] = phospholipid oxidation assay (conjugate diene formation in liposomes, Fe+3/EDTA and ascorbate); format: biochemical; conditions: Fe+3/EDTA (167 μM) and ascorbate (167 μM), one hour
Method: Antioxidant activity was measured using a phospholipid oxidation assay. Liposomes were formed from dilineoleolylphosphocholine and the test compound. Free radical damage was induced by exposure to Fe^+3 /EDTA (167 micromolar [μM]) and ascorbate (167 μM). Oxidation was terminated after one hour by freezing in liquid nitrogen. Lyophilized samples were then dissolved in methanol or water. Oxidation was measured by conjugate diene formation, monitored using UV spectroscopy as described in Biochimica et Biophyica Acta, volume 1081, 181-187, (1991). The IC50 was calculated using the following non-linear regression algorithm: Y=A/[1+(B/X)^c ], wherein A=maximum, B=IC^50 and c=cooperativity or relative broadness of the curves. The minimum was assumed to be zero.

Compound: C[C@@H]1C[C@H]2[C@@H]3CCC4=CC(=O)C=C[C@]4(C)[C@@]3(F)[C@@H](O)C[C@]2(C)[C@@]1(O)C(=O)CO [Dexamethasone, reference compound]
- % Inhibition of Influx ([1]; concentration 0.1%): 93%

Compound: COc1ccc2cc(C(C)C(=O)OCCC3(C)CCc4c(C)c(O)c(C)c(C)c4O3)ccc2c1 (stereo not drawn) [Compound D, 2-(6-hydroxy-2,5,7,8-tetramethyl-3,4-dihydro-2H-benzo[1,2-b]pyran-2yl)ethyl 2-(6-methoxy-2-naphthyl)propionate]
- IC50 (bovine retinal pieces; Bos taurus): 6 nM
- IC50 (5-lipoxygenase): 1000 nM
- % Inhibition of Influx ([1]; concentration 1.0%): 40%
- inhibition of neutrophil influx into the rat eye (in words) [1]: significantly inhibited neutrophil influx
- IC50 [2]: 2230 nM

Compound: Vitamin E [reference compound]
- IC50 (bovine retinal pieces): 5000 nM
- IC50 [2]: 4420 nM

Compound: COc1ccc2cc(C(C)C(=O)OCCC3(C)Cc4c(C)c(O)c(C)c(C)c4O3)ccc2c1 (stereo not drawn) [Compound F, 2-(5-hydroxy-2,4,6,7-tetramethyl-2,3-dihydro-benzo[1,2-b]furan-2-yl)ethyl 2-(6-methoxy-2-naphthyl)propionate]
- IC50 [2]: 2550 nM

Compound: COc1ccc2cc(C(C)C(=O)OCC3(C)CCc4c(C)c(O)c(C)c(C)c4O3)ccc2c1 (stereo not drawn) [Compound B, 2-(6-hydroxy-2,5,7,8-tetramethyl-3,4-dihydro-2H-benzo[1,2-b]pyran-2-yl)methyl 2-(6-methoxy-2-naphthyl)propionate]
- IC50 [2]: 1160 nM

Compound: COc1ccc2cc(C(C)C(=O)N(C)CC(O)c3ccc(O)c(O)c3)ccc2c1 (stereo not drawn) [Compound A, N-(2-(3,4-dihydroxyphenyl)-2-hydroxyethyl)-N-methyl 2-(6-methoxy-2-naphthyl)propionamide]
- IC50 (bovine retinal pieces; Bos taurus): 150 nM
- IC50 (5-lipoxygenase): 4000 nM
- % Inhibition of Influx ([1]; concentration 0.1%): 40%
- inhibition of neutrophil influx into the rat eye (in words) [1]: significantly inhibited neutrophil influx

Compound: COc1ccc2cc(C(C)C(=O)OCC3(C)Cc4c(C)c(O)c(C)c(C)c4O3)ccc2c1 (stereo not drawn) [Compound E, 2-(5-hydroxy-2,4,6,7-tetramethyl-2,3-dihydro-benzo[1,2-b]furan-2-yl)methyl2-(6-methoxy-2-naphthyl)propionate]
- IC50 (bovine retinal pieces; Bos taurus): 10 nM

— patent US5607966A, “Esters and amides of non-steroidal anti-inflammatory carboxylic acids which may be used as anti-oxidants, 5-lipoxygenase inhibitors and non-steroidal anti-inflammatory prodrugs” (Alcon Laboratories, Inc., priority 1994, dated 1997)
